In US10105367B2, “Therapeutic thiophene-, furan-, and pyridine-fused azolopyrimidin-5-(6h)-ones” (Dart Neuroscience (Cayman) Ltd., priority 2012, dated 2018):

Biological target: human PDE1B (Homo sapiens (Human), UniProt Q01064)
Assay: PDE1B inhibitory assay (IMAP TR-FRET)
Conditions: PDE1B pIC50, negative log of half-maximal molar inhibitory concentration; 200 nM FAM-cAMP, Calmodulin, CaCl2

Compound | IC50 [nM]
O=c1n(Cc2ccccc2Cl)c2sccc2c2ncnn12 [Example 1, 6-(2-Chlorobenzyl)thieno[3,2-e][1,2,4]triazolo[1,5-c]pyrimidin-5(6H)-one] | 1000 to 10000
O=c1n(Cc2cccc(Cl)c2)c2sccc2c2ncnn12 [Example 2] | 1000 to 10000
Cc1csc2c1c1ncnn1c(=O)n2Cc1ccc(Cl)cc1 [Example 3] | 100 to 1000
O=c1n(Cc2ccc(Cl)cc2)c2sccc2c2ncnn12 [Example 5] | 100 to 1000
Cc1csc2c1c1ncnn1c(=O)n2Cc1ccccc1 [Example 6] | 100 to 1000
O=c1n(Cc2ccccc2Cl)c2sc(Cc3ccccc3)cc2c2ncnn12 [Example 8] | 100 to 1000
O=c1n(Cc2cccc(Cl)c2)c2sc(Cc3ccccc3)cc2c2ncnn12 [Example 9] | 100 to 1000
Cc1csc2c1c1ncnn1c(=O)n2Cc1ccccc1Cl [Example 10] | 1000 to 10000
Cc1csc2c1c1ncnn1c(=O)n2Cc1cccc(Cl)c1 [Example 11] | 100 to 1000
Cc1cc2c(s1)n(Cc1ccccc1)c(=O)n1ncnc21 [Example 12] | 1000 to 10000
Cc1cc2c(s1)n(Cc1ccccc1Cl)c(=O)n1ncnc21 [Example 13] | 1000 to 10000
Cc1cc2c(s1)n(Cc1ccc(Cl)cc1)c(=O)n1ncnc21 [Example 15] | 100 to 1000
Cc1cc2c(s1)n(Cc1cccc(Cl)c1)c(=O)n1ncnc21 [Example 16] | 1000 to 10000
O=c1n(Cc2ccccc2)c2sc(Cc3ccccc3)cc2c2ncnn12 [Example 17] | 100 to 1000
O=c1n(Cc2ccc(-c3ccccc3)cc2)c2sc(Cc3ccccc3)cc2c2ncnn12 [Example 18] | 1000 to 10000
CC(C)CCc1cc2c(s1)n(Cc1ccccc1Cl)c(=O)n1ncnc21 [Example 19] | 1000 to 10000
CC(C)CCc1cc2c(s1)n(Cc1cccc(Cl)c1)c(=O)n1ncnc21 [Example 20] | 1000 to 10000
O=c1n(Cc2ccc(Cl)cc2)c2sc(Cc3ccccc3)cc2c2ncnn12 [Example 22] | 100 to 1000
CC(C)CCc1cc2c(s1)n(Cc1ccc(Cl)cc1)c(=O)n1ncnc21 [Example 23] | 100 to 1000
O=c1n(Cc2ccccc2)c2sccc2c2ncnn12 [Example 24] | 1000 to 10000
CC(C)CCc1cc2c(s1)n(Cc1ccccc1)c(=O)n1ncnc21 [Example 25] | 100 to 1000
Cc1sc2c(c1C)c1ncnn1c(=O)n2Cc1ccc(Cl)cc1 [Example 26] | 100 to 1000
COc1ccc(Cn2c(=O)n3ncnc3c3ccsc32)cc1 [Example 27] | 100 to 1000
COc1ccc(Cn2c(=O)n3ncnc3c3c(C)csc32)cc1 [Example 28] | 100 to 1000
COc1ccc(Cn2c(=O)n3ncnc3c3cc(CN(C)C)sc32)cc1 [Example 30] | 100 to 1000
COc1ccc(Cn2c(=O)n3ncnc3c3cc(CN4CCN(C)CC4)sc32)cc1 [Example 32] | 100 to 1000
COc1ccc(Cn2c(=O)n3ncnc3c3cc(-c4c(C)noc4C)sc32)cc1 [Example 42] | 100 to 1000
COc1ccc(Cn2c(=O)n3ncnc3c3c(C)c(CN4CCCC4)sc32)cc1 [Example 43, 6-(4-Methoxybenzyl)-9-methyl-8-(pyrrolidin-1-ylmethyl)thieno[3,2-e][1,2,4]triazolo[1,5-c]pyrimidin-5(6H)-one] | 100 to 1000
COc1ccc(Cn2c(=O)n3ncnc3c3c(C)c(CN4CCNCC4)sc32)cc1 [Example 49] | 100 to 1000
COc1ccc(Cn2c(=O)n3ncnc3c3c(C)c(CN4C[C@@H](C)N[C@@H](C)C4)sc32)cc1 [Example 72] | 100 to 1000

Same assay, conditions: negative log of half-maximal molar inhibitory concentration; 200 nM FAM-cAMP, Calmodulin, CaCl2

Compound | PDE1B pIC50
O=c1n(Cc2ccc(-c3ccccc3)cc2)c2sccc2c2ncnn12 [Example 4] | <5
Cc1csc2c1c1ncnn1c(=O)n2Cc1ccc(-c2ccccc2)cc1 [Example 7] | <5
Cc1cc2c(s1)n(Cc1ccc(-c3ccccc3)cc1)c(=O)n1ncnc21 [Example 14] | <5
CC(C)CCc1cc2c(s1)n(Cc1ccc(-c3ccccc3)cc1)c(=O)n1ncnc21 [Example 21] | <5
COc1ccc(Cn2c(=O)n3ncnc3c3cc(CN4CCCOCC4)sc32)cc1 [Example 29, 8-((1,4-Oxazepan-4-yl)methyl)-6-(4-methoxybenzyl)thieno[3,2-e][1,2,4]triazolo[1,5-c]pyrimidin-5(6H)-one] | >7
COc1ccc(Cn2c(=O)n3ncnc3c3cc(CN4CCOCC4)sc32)cc1 [Example 31] | >7
COc1ccc(Cn2c(=O)n3ncnc3c3cc(CN4C[C@@H](C)O[C@@H](C)C4)sc32)cc1 [Example 33] | >7
CCN1CCN(Cc2cc3c(s2)n(Cc2ccc(OC)cc2)c(=O)n2ncnc32)CC1=O [Example 34] | >7
COc1ccc(Cn2c(=O)n3ncnc3c3cc(CN4CCN(S(C)(=O)=O)CC4)sc32)cc1 [Example 35] | >7
COc1ccc(Cn2c(=O)n3ncnc3c3cc(CN4CCOC(C)(C)C4)sc32)cc1 [Example 36] | >7
COc1ccc(Cn2c(=O)n3ncnc3c3cc(CN4CC5CC4CO5)sc32)cc1 (centres unmarked) [Example 37] | >7
COc1ccc(Cn2c(=O)n3ncnc3c3cc(CN4CC5(CCOCC5)C4)sc32)cc1 [Example 38] | >7
COc1ccc(Cn2c(=O)n3ncnc3c3cc(CN4CCC5(CC4)COC5)sc32)cc1 [Example 39] | >7
COc1ccc(Cn2c(=O)n3ncnc3c3cc(CN4CCN5C(=O)OCC5C4)sc32)cc1 (centres unmarked) [Example 40] | >7
COc1ccc(Cn2c(=O)n3ncnc3c3cc(-c4cc(C(F)(F)F)nn4C)sc32)cc1 [Example 41, 6-(4-Methoxybenzyl)-8-(1-methyl-3-(trifluoromethyl)-1H-pyrazol-5-yl)thieno[3,2-e][1,2,4]triazolo[1,5-c]pyrimidin-5(6H)-one] | >7
COc1ccc(Cn2c(=O)n3ncnc3c3c(C)c(CN4CCOCC4)sc32)cc1 [Example 44] | >7
COc1ccc(Cn2c(=O)n3ncnc3c3c(C)c(CN(C)C)sc32)cc1 [Example 45] | >7
COc1ccc(Cn2c(=O)n3ncnc3c3c(C)c(CN(C)C4CC4)sc32)cc1 [Example 46] | >7
COc1ccc(Cn2c(=O)n3ncnc3c3c(C)c(CN4CCC(O)CC4)sc32)cc1 [Example 47] | >7
COc1ccc(Cn2c(=O)n3ncnc3c3c(C)c(CN(CCO)Cc4ccccc4)sc32)cc1 [Example 48] | >7
COc1ccc(Cn2c(=O)n3ncnc3c3c(C)c(CNCC4(C)COC4)sc32)cc1 [Example 50] | >7

Compound | PDE1B pIC50
COc1ccc(Cn2c(=O)n3ncnc3c3c(C)c(CN4CCN(C(C)=O)CC4)sc32)cc1 [Example 51] | >7
COc1ccc(Cn2c(=O)n3ncnc3c3c(C)c(CNCc4cccnc4)sc32)cc1 [Example 52] | >7
COc1ccc(Cn2c(=O)n3ncnc3c3c(C)c(CN4CCNC(=O)C4)sc32)cc1 [Example 53] | >7
COc1ccc(Cn2c(=O)n3ncnc3c3c(C)c(CN(C)CC4CCCO4)sc32)cc1 (centres unmarked) [Example 54] | >7
COc1ccc(Cn2c(=O)n3ncnc3c3c(C)c(CN4C[C@@H](C)O[C@@H](C)C4)sc32)cc1 [Example 55] | >7
COc1ccc(Cn2c(=O)n3ncnc3c3c(C)c(CN4Cc5ccccc5C4)sc32)cc1 [Example 56] | >7
COc1ccc(Cn2c(=O)n3ncnc3c3c(C)c(CNC4CC4)sc32)cc1 [Example 57] | >7
COC[C@@H]1CCCN1Cc1sc2c(c1C)c1ncnn1c(=O)n2Cc1ccc(OC)cc1 [Example 58] | >7
COc1ccc(Cn2c(=O)n3ncnc3c3c(C)c(CN(C)CC4CCOC4)sc32)cc1 (centres unmarked) [Example 59] | >7
COc1ccc(Cn2c(=O)n3ncnc3c3c(C)c(CN4CCCOCC4)sc32)cc1 [Example 61] | >7
COc1ccc(Cn2c(=O)n3ncnc3c3c(C)c(CN4CCN(S(C)(=O)=O)CC4)sc32)cc1 [Example 63] | >7
COc1ccc(Cn2c(=O)n3ncnc3c3c(C)c(CN4CCN(C(C)C)CC4)sc32)cc1 [Example 64] | >7
COc1ccc(Cn2c(=O)n3ncnc3c3c(C)c(CN4CC5CC4CO5)sc32)cc1 (centres unmarked) [Example 65] | >7
CCN1CCN(Cc2sc3c(c2C)c2ncnn2c(=O)n3Cc2ccc(OC)cc2)CC1=O [Example 66] | >7
COc1ccc(Cn2c(=O)n3ncnc3c3c(C)c(CN4CC5CCC(C4)O5)sc32)cc1 [Example 67] | >7
CCC1CN(Cc2sc3c(c2C)c2ncnn2c(=O)n3Cc2ccc(OC)cc2)CCO1 (centres unmarked) [Example 68] | >7
COc1ccc(Cn2c(=O)n3ncnc3c3c(C)c(CN4CCOC(C)(C)C4)sc32)cc1 [Example 69] | >7
COc1ccc(Cn2c(=O)n3ncnc3c3c(C)c(CN4CCOC(C)C4)sc32)cc1 (centres unmarked) [Example 70] | >7
COc1ccc(Cn2c(=O)n3ncnc3c3c(C)c(CN4CCOCC4C)sc32)cc1 (centres unmarked) [Example 71] | >7
COc1ccc(Cn2c(=O)n3ncnc3c3c(C)c(CN4CCN(C)C(C)C4)sc32)cc1 (centres unmarked) [Example 73] | >7
